Laboratory results taken from patent publication US9816103B2, “Methods of enhancing the resistance of plants to bacterial pathogens” (priority 2008, dated 2017).
No end group written: not given here.

Assays:
[1] = test system: wild-type leaves of Arabidopsis thaliana Col-0; assay: Oxidative burst induced by elf18 peptides from phytopathogenic bacteria; assay type: cell-based; conditions: Col-0 leaves; relative to E. coli elf18 positive control
EFR (#18) Nb plants = assay: Oxidative burst, luminol-based assay, EFR transgenic Nb leaf discs; assay type: cell-based, Nicotiana benthamiana; conditions: 100 nM peptide
Protocol: (§1) To measure the production of reactive oxygen species (ROS) in leaf tissue, size #1 leaf discs (Nb; n=12, tomato; n=8) were floated overnight in water. Each disc was then transferred to a well containing an assay mix of luminol (200 μM) and peroxidase (20 μg/ml) in 100 μl water. Each well was then treated with either: assay mix, 100 nm elf18, or 100 nm flg22. Luminescence in a 96-well plate was subsequently measured using a Flash Varioskan luminometer.

wild-type Nb [2] = assay: Oxidative burst, luminol-based assay, wild-type Nb leaf discs; assay type: cell-based, Nicotiana benthamiana; conditions: 100 nM peptide
Protocol: as §1

EFR plants (#18 Nb) = assay: Early and late defense marker gene expression by RT-PCR, EFR Nb seedlings; assay type: in vivo, Nicotiana benthamiana; conditions: 100 nM peptide, 0, 30, 60, 180 min
Protocol: (§2) Wild-type and #18 Nb were grown for one week on agar plates, then transferred to liquid culture and were grown for a further week. The expression of PAMP-induced genes was monitored over a time course. Seedlings were treated with 100 nM elf18 or flg22 for 0, 30, 60 or 180 minutes, and frozen in liquid nitrogen.
(§3) In brief: four elicited seedlings were thoroughly ground directly in the supplied extraction buffer in Eppendorf tubes using a pestle on an IKA RW 20 stirrer. Total RNAs were extracted using the Qiagen Rneasy Plant Mini kit. The quality of the extracted RNA was confirmed by running an ethidium bromide-stained agarose gel to reveal rRNAs. DNase treatment was performed using TURBO DNA-free kit (Ambion) and the concentration of total RNA was then measured using a Nanodrop. First strand cDNA synthesis was performed using SuperScript II Reverse Transcriptase (Invitrogen) in combination with Oligo(dT) prime on 2 μg of total RNA. One μl of cDNA was used in PCR under the following conditions: 95° C. 2 min; [95° C. 45 sec; 58° C. 45 sec; 55° C. 30 sec; 72° C. 1.5 min]×25; 72° C. 5 min. The genes used as defense markers were: CYP72D2 (cytochrome P450), FLS2 (receptor kinase for flg22), ACRE132 (putative RING finger protein) and WRKY22 (transcription factor). As loading control the constitutively expressed EF-1α housekeeping gene was also amplified.

wild-type Nb [3] = assay: Early and late defense marker gene expression by RT-PCR, wild-type Nb seedlings; assay type: in vivo, Nicotiana benthamiana; conditions: 100 nM peptide, 0, 30, 60, 180 min
Protocol: as §2, §3

EFR Nb = assay: Callose deposition, aniline blue staining, EFR Nb leaves; assay type: in vivo, Nicotiana benthamiana; conditions: 100 nM peptide infiltrated, ~16 hours, data not shown
Protocol: A solution of either water, 100 nM elf18, or 100 nM flg22 was used to infiltrate leaves of 4-week old wild-type and EFR Nb. Size #3 leaf discs (n=8) were sampled after ˜16 hours and destained in methanol overnight. Discs were rinsed in water, then left to stain overnight in a solution of 0.05% aniline blue in 50 mM phosphate buffer pH 8.5. Callose deposition at the plant cell periphery could then be viewed under a fluorescence microscope.

Wild-type Nb plants = assay: Seedling growth inhibition (fresh weight), wild-type Nb; assay type: in vivo, Nicotiana benthamiana; conditions: 0.1-1000 nM peptide, one week
Protocol: (§4) Wild-type, #16 and #18 Nb as well as Col and efr Arabidopsis thaliana seedlings were grown for one week onMS 1% sucrose agar plates, then transferred to liquid culture and were grown for one week in a serial dilution or elf18 or flg22. Dilutions of 0.1, 1, 10, 100 and 1000 nM were used for all five plant lines. Seedlings (n=4) were blotted on absorbent paper and their fresh weight was measured.

[4] = test system: EFR plants (Nb expressing transgenic AtEFR); assay: Seedling growth inhibition (fresh weight), EFR Nb; assay type: in vivo, Nicotiana benthamiana; conditions: 0.1-1000 nM peptide, one week
Protocol: as §4

Wild-type Col plants = assay: Seedling growth inhibition (fresh weight), Arabidopsis wild-type Col; assay type: in vivo, Arabidopsis thaliana; conditions: 0.1-1000 nM peptide, one week
Protocol: as §4

efr plants = assay: Seedling growth inhibition (fresh weight), Arabidopsis efr; assay type: in vivo, Arabidopsis thaliana; conditions: 0.1-1000 nM peptide, one week
Protocol: as §4

[5] = test system: primary transformant tomato plants; assay: Oxidative burst, luminol-based assay, AtEFR tomato primary transformants; assay type: cell-based, Solanum lycopersicum; conditions: 100 nm peptide; ten positive tomato lines; data not shown
Protocol: as §1, with “tomato and potato;” for “tomato;”
The detection of an oxidative burst is a relatively simple and reliable assay for defense activation. Cumulative luminescence was recorded for each plant over a time course of 40 minutes. […] Several other transformants were unable to express functional AtEFR as they give very little response to elf18, yet are able to respond to flg22 elicitation (data not shown). Other transformants, perhaps due to old age, were unable to respond to elf18 or flg22 treatment (data not shown). The 10 positive lines appear to have acquired EF-Tu responsiveness in this assay. Therefore seeds were harvested to grow homozygous lines for use in further assays to confirm of these initial results.

[6] = test system: transgenic EFR potatoes (Desiree); assay: Oxidative burst, luminol-based assay, transgenic EFR potatoes; assay type: cell-based, Solanum tuberosum; conditions: 100 nm peptide; positive potato lines; data not shown
Protocol: as §1, with “tomato and potato;” for “tomato;”
Oxidative burst assays were also conducted with transgenic EFR potatoes (Desiree).

Substance	eliciting activity (oxidative burst) [1]	release of reactive oxygen species (luminescence) (EFR (#18) Nb plants)	release of reactive oxygen species (luminescence) (wild-type Nb [2])	defense marker gene induction (EFR plants (#18 Nb))	defense marker gene induction (wild-type Nb [3])	callose deposition (EFR Nb)	seedling growth inhibition (fresh weight) (Wild-type Nb plants)	seedling growth inhibition (fresh weight) [4]	seedling growth inhibition (fresh weight) (Wild-type Col plants)	seedling growth inhibition (fresh weight) (efr plants)	burst of ROS (cumulative luminescence over 40 minutes) [5]	burst of ROS [6]
elf18 Pseudomonas syringae pv. syringae DC3000: synthetic elf18 peptide derived from EF-Tu of Pseudomonas syringae DC3000 (pv. tomato per b37) (MAKEKFDRSLPHCNVGTI; ends and bridges not checked)	very low eliciting activity											
elf18 Xanthomonas campestris pv campestris 8004 and B100: synthetic elf18 peptide derived from EF-Tu of Xanthomonas campestris pv. campestris 8004 and B100 (MARAKFLREKLHVNVGTI; Xanthomonas campestris pv. campestris 8004)	very low eliciting activity											
elf18: EF-Tu epitope elf18: region of 18 amino-acids at the N-acetylated terminus of eubacterial EF-Tu recognized by EFR (Ac-MARAKFLREKLHVNVGTI)		peak of luminescence corresponding to a burst of ROS	never revealed a burst of ROS	marker gene expression which is at least as strong as under flg22 treatment	unable to elicit a significant amount of expression	stronger response	able to grow in the presence of up to 1000 nM elf18	responsive	decreasing growth as elf18 concentration increases	insensitive	considerable burst of ROS	considerable burst of ROS
